The source of these data is PubChem BioAssay (NCI).

As a reminder, the GI50 is the concentration that inhibits growth by half. Broadly, the TGI is the concentration giving total growth inhibition. Read a high TGI as less potent growth arrest.

Common to all, as to assay: DTP human tumour cell line panel, 48 h
In assay [1] the test system is UO-31 renal.
Assay [2] relates to SN12C renal.
Assay [3] concerns SF-268 CNS.
The test system of assay [4] is EKVX NSCLC.
In assay [5] the test system is NCI-H23 lung.
For assay [6], the system named is OVCAR-4 ovarian.
The test system of assay [7] is HCT-116 colon.
Assay [8] deals with HOP-62 NSCLC.
Assay [9] concerns LOX IMVI melanoma.
The subject of assay [10] is 786-0 renal.

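96-well plates; 48 h exposure; 5 concentrations. Endpoints by linear interpolation between flanking doses. Not reached: highest tested concentration assigned. GI50: concentration for 50% inhibition of growth. TGI: concentration producing complete growth inhibition.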

Regarding `C=C1C[C@H](O)[C@H](Br)C(C)(C)[C@@]12CCC(C)=C(Cl)C2`, the GI50 in assay [1] was 0.612 µM; in assay [2], 0.416 µM; in assay [3] it was 0.396 µM; in assay [4] it was 0.0371 µM; in assay [5], 0.173 µM; in assay [6], 0.155 µM. Moreover, the GI50 in assay [7] is 0.32 µM; in assay [8], 0.377 µM; in assay [9] it was 0.483 µM; in [10] it was 0.57 µM. The TGI in assay [1] worked out at 3.25 µM; in [2], 6.61 µM; in [3], 6.25 µM; in assay [4] it was 1.37 µM; in [5], 2.99 µM; in assay [6], 7.81 µM. The TGI worked out at 4.92 µM in assay [8], 2.07 µM in assay [9] and 11.7 µM in [10].

Take `C=C(C)C(=O)O[C@@H]1C[C@@]2(C)O[C@@H]2C[C@H](O)/C(C)=C/[C@H]2OC(=O)C(=C)[C@@H]21`: the TGI in assay [2] was > 100 µM; in assay [3], > 100 µM; in [4] it was > 100 µM; in assay [5] it was > 100 µM; in assay [6], 78.9 µM; in [7], > 100 µM. Also, the TGI in assay [8], in assay [9] and in assay [10] was > 100 µM each time.

Take `C#Cc1cccc(Nc2nc3cc([N+](=O)[O-])ccc3nc2Nc2ccc(O)cc2)c1`: the GI50 in assay [1] was 1.53 µM; in assay [3] it was 1.56 µM; in assay [4], 1.86 µM; in assay [6], 1.99 µM; in assay [7] it was 1.46 µM; in assay [8], 1.67 µM. In addition, the GI50 in assay [9] was 1.38 µM; in assay [10], 1.59 µM. The TGI worked out at 3.12 µM in assay [1]; 3.45 µM in [3]; 5.26 µM in assay [4]; 5.03 µM in [6]; 2.9 µM in assay [7]; 3.35 µM in assay [8]. For the same compound, the figures for the TGI in assay [9] and in assay [10] were 2.69 µM and 3.43 µM, respectively.

Turning to `COc1cc2c(cc1OC)C(Cl)C(c1ccc(F)cc1)=C2Cl` (stereo not given), the TGI stood at 33.3 µM in [1]; 27 µM in assay [2]; 39.5 µM in assay [3]; 40.7 µM in [4]; 16.5 µM in [5]; 25.6 µM in assay [7]. Besides, the TGI is 30.1 µM in [8], 27.7 µM in assay [9] and 24.8 µM in assay [10].

For the compound `COC1=CC(=O)C(C2(OC(C)C)OC(=O)C(Cl)=C2Cl)=CC1=O` (stereo not given), the concentration for total growth inhibition (TGI) in [1], in [2], in [3], in assay [4], in [5] and in assay [7] was > 100 µM each time. Moreover, the TGI was > 100 µM in assay [8], > 100 µM in assay [9] and 86.4 µM in assay [10].

Turning to `[O-][Cl+3]([O-])([O-])[O-].[O]=[Ru]=[O].c1ccc(-c2ccccn2)nc1.c1ccc(-c2ccccn2)nc1`, the GI50 is > 100 µM in [1]; 50.9 µM in assay [2]; 65.7 µM in assay [3]; > 100 µM in assay [4]; > 100 µM in [5]; > 100 µM in assay [6]. The GI50 in [8] was > 100 µM; in assay [9], 56.8 µM; in assay [10], > 100 µM. Besides, the total growth inhibition concentration (TGI) in assay [1], in assay [2], in [3], in [4], in assay [5] and in assay [6] was > 100 µM throughout. For the same compound, the TGI in assay [8], in [9] and in assay [10] was > 100 µM throughout.

Regarding `CC(=O)[O-].CC(=O)[O-].O=C(N/N=C/c1cc(Cl)cc(Cl)c1O)c1ccncc1.[Cu+2]`, the TGI in [1], in assay [2], in assay [3], in assay [4], in [5] and in [7] was > 100 µM each time. Besides, the TGI in [8], in assay [9] and in [10] was > 100 µM in each case.

`Clc1ccc2cccc3c2c1C1OC3c2ccccc21` (stereo not given): the TGI in [1], in assay [2], in assay [3], in assay [4], in [5] and in assay [7] was > 100 µM each time. Further, the TGI in assay [8], in [9] and in assay [10] was > 100 µM each time.

Take `CC#Cc1ccc(-c2ccccc2)s1`: the TGI in [1], in [2], in [3], in [4], in assay [5] and in assay [6] was > 100 µM each time. For the same compound, the TGI in [7], in assay [9] and in assay [10] was > 100 µM each time.

Turning to `Cc1nnc2ccnn2c1C`, the GI50 in [1], in assay [2], in assay [3], in assay [6], in assay [7] and in [8] was > 100 µM throughout. The GI50 in assay [9] and in [10] was > 100 µM throughout. For the same compound, the TGI in assay [1] was > 100 µM; in [2], > 100 µM; in assay [3], > 100 µM; in assay [4] it was 0.962 µM; in [6], > 100 µM; in assay [7], > 100 µM. The TGI in [8], in assay [9] and in assay [10] was > 100 µM each time.

Regarding `CN1CCN(c2ccc(Nc3ncc(Cl)c(NC[C@@H]4CCCO4)n3)cc2)CC1`, the GI50 was 1.13 µM in [2]; 1.55 µM in assay [3]; 1.69 µM in [4]; 0.987 µM in [5]; 3.03 µM in assay [6]; 0.705 µM in assay [8]. Besides, the GI50 in assay [9] was 0.826 µM; in assay [10], 1.68 µM. Also, the total growth inhibition concentration (TGI) was > 100 µM in assay [2]; 12.9 µM in [3]; 5.74 µM in assay [4]; 11.6 µM in assay [5]; 81.7 µM in assay [6]; 4.61 µM in [8]. Further, the TGI was 6.83 µM in assay [9] and 15.1 µM in [10].
